The values below come from patent US20210299076A1, “AMINO ACID FORMULATIONS AND USES THEREOF” (University of Florida Research Foundation, Incorporated, priority 2012, published 2021).

For data set [1], the system named is ileum (HCO3− secretion). The data set can be described thus: pH stat HCO3− secretion in ileum. It counts as cell-based, mouse. The settings on record: for Effect on lumen Cl−-independent HCO3− secretion stimulated by glucose: 100 μM on lumen side, 6 mM glucose. As for the experimental part: pH stat studies are performed to determine whether HCO3^− secretion contributes to the unaccounted portion of the Isc. At least two modes of HCO3^− secretion in the mouse small intestine have been identified by the present inventors: 1) Cl^−-dependent, electroneutral Cl^−—HCO3^− exchange, and 2) Cl^−-independent, electrogenic HCO3^− secretion. […] Specifically, HCO3^−-free, poorly buffered solution is added to both sides of the tissues mounted in an Ussing chamber and both sides of the tissues are bubbled with 100% O2. Minimal HCO3^− secretion (0.1±0.01 mEq.h^−1.cm^−2, n=12) is recorded under such conditions. Subsequent addition of HCO3^−-containing buffered solution to the basolateral side and bubbling with 95% O2 and 5% CO2 on that side results in significant HCO3^− secretion 3.8±0.2 mEq.h^−1.cm^−2 (n=9). To determine whether lumen Cl^−-independent HCO3^− secretion plays a role in HCO3^− secretion (in the absence of lumen glucose), pH stat experiments are performed in the absence of lumen Cl^−. In the absence of lumen Cl^−, minimal HCO3^− secretion is recorded (0.4±0.1 pEq.h^−1.cm^−2) (FIG. 5A). […] The HCO3^− secretion in the presence of glucose could be due to a lumen Cl^−-dependent, electroneutral Cl—HCO3^− exchange or a lumen Cl^−-independent anion channel-mediated HCO3^− secretion. To assess the mechanism of glucose-stimulated HCO3^− secretion, glucose is added to the mucosal side.

Data set [2] relates to mouse ileum. In words: Bio-electric measurement of short-circuit current (Isc) in ileal sheets, Ussing chamber. In kind it is cell-based. The following applies: for Effect on glucose- or 3-OMG-stimulated increase in Isc: tissues pre-treated with H-89. The source says:
(§1) Normally fed, 8-week-old, male NIH Swiss mice are sacrificed by CO2 inhalation, followed by cervical dislocation. The small intestine is gently removed, and the segment is washed and flushed in ice-cold Ringer's solution. Then the mucosa is separated from the serosa and the muscular layers by striping through the submucosal plane as previously described (Zhang et al. (2007) J Physiol 581(3):1221-1233). Following exsanguinations, ileal mucosa is obtained from a 10 cm segment close to the caecum. All experiments are approved by the University of Florida Institutional Animal Care and Use Committee.
Ion transport studies are performed on ileal sheets. Tissues are then mounted in between the two halves of an Ussing type-Lucite chamber with 0.3 cm^−2 exposed surface areas (P2304, Physiologic Instruments, San Diego, Calif., USA). Regular Ringer's solution (115 mM NaCl, 25 mM NaHCO3, 4.8 mM K2HPO4, 2.4 mM KH2PO4, 1.2 mM MgCl2 and 1.2 mM CaCl2) bubbled with 95% O2: 5% CO2 is used bilaterally as bathing solution for the tissues and the temperature is maintained constant at 37° C. The chambers are balanced to eliminate osmotic and hydrostatic forces. Resistance due to fluid is also compensated. The tissues are allowed to stabilize. The basal short-circuit current (Isc) and the corresponding conductance (G) are recorded using a computer controlled voltage/current clamp device (VCC MC-8, Physiologic Instruments).
Tissues paired with similar conductance and current are treated with or without 100 μM H-89 (Santa Cruz Biotechnology, Inc, Santa Cruz, Calif.), an irreversible protein kinase A (PKA) inhibitor. The tissues are incubated with H-89 for 30 minutes. Increasing concentrations of glucose (0.015-8 mM) are added every 5 minutes and the peak current is noted. Saturation kinetic constant is calculated for the corresponding Km and Vmax for treated and untreated tissues.
To investigate whether inhibition of glucose transport abolishes PKA-sensitive current, experiments are conducted using phlorizin (Santa Cruz Biotechnology, Inc, Santa Cruz, Calif., USA), a reversible competitive inhibitor of SGLT1. Specifically, ileal tissues mounted in Ussing chamber are treated with 100 μM phlorizin on the lumen side and glucose saturation kinetic studies are conducted.

Substrate in data set [3]: CO[C@@H]([C@H](O)[C@H](O)CO)[C@@H](O)C=O
In words: Saturation kinetics of Na+-coupled glucose / 3-OMG transport (Isc, Ussing chamber, ileal sheets). In kind it is cell-based, mouse. The settings on record: 37.0 °C.
Source text: as §1
Ion transport studies are performed on ileal sheets. Tissues are then mounted in between the two halves of an Ussing type-Lucite chamber with 0.3 cm^−2 exposed surface areas (P2304, Physiologic Instruments, San Diego, Calif., USA). […] The basal short-circuit current (Isc) and the corresponding conductance (G) are recorded using a computer controlled voltage/current clamp device (VCC MC-8, Physiologic Instruments).
Tissues paired with similar conductance and current are treated with or without 100 μM H-89 (Santa Cruz Biotechnology, Inc, Santa Cruz, Calif.), an irreversible protein kinase A (PKA) inhibitor. […] Saturation kinetic constant is calculated for the corresponding Km and Vmax for treated and untreated tissues. […]

Where [4] appears, read: FIG. 5B, lumen Cl− present, 100 μM DIDS, 10 μM NPPB.

Entries after “also recorded” stand apart in the source; their conditions may differ.

Consider `O=S(=O)(O)c1cc(N=C=S)ccc1C=Cc1ccc(N=C=S)cc1S(=O)(=O)O` [DIDS, 4,4′-diisothiocyano-2,2′-stilbenedisulfonic acid], for which the “Effect on HCO3− secretion in the absence of glucose” value in data set [1] (setting [4]) is given as “abolishes HCO3^− secretion”. In the case of `O=S(=O)(NCCNC/C=C/c1ccc(Br)cc1)c1cccc2cnccc12` [Formulation H-89], the “Effect on glucose- or 3-OMG-stimulated increase in Isc” value in data set [2] is “significant decrease in Isc”; in data set [2] (listed as H89), “significant reduction”. As to `COc1ccc(Cl)cc1C(=O)NCCc1ccc(S(=O)(=O)NC(=O)NC2CCCCC2)cc1` [Glibenclamide, glibenclamide], the “Effect on lumen Cl−-independent HCO3− secretion stimulated by glucose” value in data set [1] is on record as “inhibits”. On to `O=C(O)c1cc([N+](=O)[O-])ccc1NCCCc1ccccc1` [NPPB, 5-nitro-2-(3-phenylpropylamino)-benzoic acid], for which the “Effect on lumen Cl−-independent HCO3− secretion stimulated by glucose” value in data set [1] is “inhibits”. Further, in data set [1] (setting [4]), the “Effect on HCO3− secretion in the absence of glucose” value was “does not have any inhibitory effect” and the “Effect on HCO3− secretion in the presence of 6 mM glucose” value was “inhibits”. `N=C(N)NC(=O)c1nc(Cl)c(N)nc1N` [amiloride]: the “Effect on Isc” value in data set [2] (10 μM on mucosal side of small intestine) was “no effect”. As to `O=C(CCc1ccc(O)cc1)c1c(O)cc(O)cc1O[C@@H]1O[C@H](CO)[C@@H](O)[C@H](O)[C@H]1O` [phlorizin], the “Effect on glucose- and/or 3-OMG-stimulated increase in Isc” value in data set [2] (100 μM phlorizin on lumen side) is recorded as “no response; also recorded: completely abolished”.

B1: SGLT1 (Mus musculus) (protein)
chain: MDSSTLSPAVTATDAPIPSYERIRNAADISVIVIYFVVVMAVGLWAMFSTNRGTVGGFFLAGRSMVWWPIGASLFASNIGSGHFVGLAGTGAAAGIAMGGFEWNALVLVVVLGWIFVPIYIKAGVVTMPEYLRKRFGGKRIQIYLSVLSLLLYIFTKISADIFSGAIFINLALGLDIYLAIFILLAITALYTITGGLAAVIYTDTLQTAIMLVGSFILTGFAFNEVGGYEAFMDKYMKAIPTKVSNGNFTAKEECYTPRADSFHIFRDPITGDMPWPGLIFGLAILALWYWCTDQVIVQRCLSAKNMSHVKADCTLCGYLKLLPMFLMVMPGMISRILYTEKIACVLPEECQKYCGTPVGCTNIAYPTLVVELMPNGLRGLMLSVMMASLMSSLTSIFNSASTLFTMDIYTKIRKKASEKELMIAGRLFILVLIGISIAWVPIVQSAQSGQLFDYIQSITSYLGPPIAAVFLLAIFCKRVNEQGAFWGLILGFLIGISRMITEFAYGTGSCMEPSNCPKIICGVHYLYFAIILFVISVITILIISFLTKPIPDVHLYRWCWSLRNSKEERIDLDAGEEEDIPEDSKDTIEIDTEAPQKKKGCFRRAYDLFCGLDQDKGPKMTKEEEEAMKMKMTDTSEKPLWRTVVNINGIILLAVAVFCHAYFA
notes: Ion transport studies are performed on ileal sheets; from tissue; host or cells: ileal mucosa of NIH Swiss mice
What is called Km is the concentration of substrate that gives half-maximal velocity. As for B1, the Km came to 200 µM in data set [3] (other: Table 1, no PKA inhibitor, n = 8 tissues) and 220 ± 70 µM in data set [3] (other: increasing lumen concentrations up to 8 mM, 140 mM Na+, no inhibitor).
